The values that follow come from patent US12378224B2 (Dong-A Socio Holdings Co., Ltd., priority 2016, dated 2025).

This test concerns the target human MER (528-end) (Homo sapiens (Human), UniProt Q12866). Description: HTRF Kinase Activity Biochemical Assay (KinEASE-TK). Particulars: 10 uM ATP. How it is done: For the SAR (structure-activity relationship) and compound screening, HTRF (Homogeneous Time Resolved Fluorescence) kinase activity assay was employed for all MER, AXL and TYRO3 kinases using Cisbio HTRF® KinEASE™-TK kit (Cisbio, USA). The kit includes biotin-labeled TK substrate, streptavidin-XL665, Eu3+-cryptate-labeled TK antibody and HTRF® Detection buffer. There are two main steps in the kinase assay: kinase reaction and detection of phosphorylated substrate. The reaction was carried out in white low volume 384-well plate (Corning, USA) with 25 nL compound in dimethyl sulfoxide in each well. […] Then the reaction was stopped after 1 hour incubation at room temperature by adding 5 uL of HTRF® Detection buffer which also contains 0.375 nM Eu3+-cryptate-labeled TK antibody and 0.062 uM streptavidin-XL665(SA-XL665) to allow for detection of the phosphorylated peptide product. After 1 h incubation at room temperature, the fluorescence intensity was measured with Envision™ plate reader (PerkinElmer, USA). Upon excitation at 340 nm by UV, the energy from Eu3+ donor of the antibody is transferred to the FRET acceptor XL665, and […] emits light at 665 nm. The level of kinase activity was quantified by the HTRF ratio that calculated from the intensity of emission at 665 nm and emission at 620 nm (fluorescence intensity @ 665 nm/fluorescence intensity @ 620 nm×10,000). The recombinant protein of human MER (528-end) was purchased from Carnabio, Japan. The recombinant human AXL (473-end) and TYRO3 (455-end) were purchased from SignalChem, Canada.
Background: Time-resolved FRET reads energy transfer from a long-lived donor to a nearby acceptor.

pIC50: −log10 of the molar value.

Sequence of human MER (528-end) (Q12866 528-999 limits assumed): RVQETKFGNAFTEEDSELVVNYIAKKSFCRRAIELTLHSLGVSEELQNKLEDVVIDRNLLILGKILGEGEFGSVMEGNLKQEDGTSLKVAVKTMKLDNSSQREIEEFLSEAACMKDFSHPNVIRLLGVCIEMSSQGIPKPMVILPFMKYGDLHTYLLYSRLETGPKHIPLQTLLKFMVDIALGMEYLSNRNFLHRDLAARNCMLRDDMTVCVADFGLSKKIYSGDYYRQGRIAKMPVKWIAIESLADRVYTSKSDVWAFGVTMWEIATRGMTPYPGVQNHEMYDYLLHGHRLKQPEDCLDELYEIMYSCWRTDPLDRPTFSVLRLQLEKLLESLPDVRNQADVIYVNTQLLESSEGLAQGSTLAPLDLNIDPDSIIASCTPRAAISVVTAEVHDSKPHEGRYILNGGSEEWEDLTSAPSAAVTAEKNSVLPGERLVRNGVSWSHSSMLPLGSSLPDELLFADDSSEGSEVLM

Turning to `Cn1cc(-c2cnc(N)c(C(=O)N[C@@H]3CCN(C(=S)NCc4ccccc4)C3)c2)cn1` [Example 43, (R)-2-amino-N-(1-(benzylcarbamothioyl)pyrrolidin-3-yl)-5-(1-methyl-1H-pyrazol-4-yl)nicotinamide], the pIC50 (as a rule, −log10 of the IC50, conventionally taken in molar units) is under 6.00.
With `Cn1cc(-c2cnc(N)c(C(=O)N[C@@H]3CCN(C(=S)Nc4ccc(Cl)c(Cl)c4)C3)c2)cn1` [Example 44, (R)-2-amino-N-(1-((3,4-dichlorophenyl)carbamothioyl)pyrrolidin-3-yl)-5-(1-methyl-1H-pyrazol-4-yl)nicotinamide] the figure was under 6.00; with `COc1ccc(NC(=S)N2CC[C@@H](NC(=O)c3cc(-c4cnn(C)c4)cnc3N)C2)cc1` [Example 45, (R)-2-amino-N-(1-((4-methoxyphenyl)carbamothioyl)pyrrolidin-3-yl)-5-(1-methyl-1H-pyrazol-4-yl)nicotinamide], under 6.00; with `Cn1cc(-c2cnc(N)c(C(=O)N[C@@H]3CCN(C(=S)Nc4ccc(Br)cc4)C3)c2)cn1` [Example 46, (R)-2-amino-N-(1-((4-bromophenyl)carbamothioyl)pyrrolidin-3-yl)-5-(1-methyl-1H-pyrazol-4-yl)nicotinamide], under 6.00.
On to `Cn1cc(-c2cnc(N)c(C(=O)N[C@@H]3CCN(C(=S)Nc4ccc([N+](=O)[O-])cc4)C3)c2)cn1` [Example 47, (R)-2-amino-5-(1-methyl-1H-pyrazol-4-yl)-N-(1-((4-nitrophenyl)carbamothioyl)pyrrolidin-3-yl)nicotinamide], for which the pIC50 was under 6.00.
As for `CN(C)c1ccc(NC(=S)N2CC[C@@H](NC(=O)c3cc(-c4cnn(C)c4)cnc3N)C2)cc1` [Example 48, (R)-2-amino-N-(1-((4-(dimethylamino)phenyl)carbamothioyl)pyrrolidin-3-yl)-5-(1-methyl-1H-pyrazol-4-yl)nicotinamide], the figure is under 6.00; as for `Cn1cc(-c2cnc(N)c(C(=O)N[C@@H]3CCN(C(=S)Nc4cc(Cl)cc(Cl)c4)C3)c2)cn1` [Example 50, (R)-2-amino-N-(1-((3,5-dichlorophenyl)carbamothioyl)pyrrolidin-3-yl)-5-(1-methyl-1H-pyrazol-4-yl)nicotinamide], 6.00 to 7.00; as for `Cn1cc(-c2cnc(N)c(C(=O)N[C@@H]3CCN(C(=S)Nc4cccc(-c5ccccc5)c4)C3)c2)cn1` [Example 51, (R)—N-(1-([1,1′-biphenyl]-3-ylcarbamothioyl)pyrrolidin-3-yl)-2-amino-5-(1-methyl-1H-pyrazol-4-yl)nicotinamide], 6.00 to 7.00.
In the case of `Cn1cc(-c2cnc(N)c(C(=O)N[C@@H]3CCN(C(=S)Nc4cccc(Br)c4)C3)c2)cn1` [Example 52, (R)-2-amino-N-(1-((3-bromophenyl)carbamothioyl)pyrrolidin-3-yl)-5-(1-methyl-1H-pyrazol-4-yl)nicotinamide], the pIC50 was under 6.00.
As to `Cn1cc(-c2cnc(N)c(C(=O)N[C@@H]3CCN(C(=O)Oc4ccccc4)C3)c2)cn1` [Example 54, phenyl (R)-3-(2-amino-5-(1-methyl-1H-pyrazol-4-yl)nicotinamido)pyrrolidine-1-carboxylate], the pIC50 was under 6.00.
With `Cn1cc(-c2cnc(N)c(C(=O)N[C@@H]3CCN(C(=O)Oc4cccc(C(=O)N5CCCCC5)c4)C3)c2)cn1` [Example 55, 3-(piperidine-1-carbonyl)phenyl (R)-3-(2-amino-5-(1-methyl-1H-pyrazol-4-yl)nicotinamido)pyrrolidine-1-carboxylate] the figure was under 6.00; with `Cn1cc(-c2cnc(N)c(C(=O)N[C@@H]3CCN(C(=O)Oc4ccc5c(c4)CCCC5)C3)c2)cn1` [Example 56, 5,6,7,8-tetrahydronaphthalen-2-yl (R)-3-(2-amino-5-(1-methyl-1H-pyrazol-4-yl)nicotinamido)pyrrolidine-1-carboxylate], 6.00 to 7.00.
`Cc1cc(OC(=O)N2CC[C@@H](NC(=O)c3cc(-c4cnn(C)c4)cnc3N)C2)cc(C(C)C)c1` [Example 57, 3-isopropyl-5-methylphenyl (R)-3-(2-amino-5-(1-methyl-1H-pyrazol-4-yl)nicotinamido)pyrrolidine-1-carboxylate] gave a negative logarithm of the IC50 (pIC50) of under 6.00.
For `Cn1cc(-c2cnc(N)c(C(=O)N[C@@H]3CCN(C(=O)Oc4ccccc4OCc4ccccc4)C3)c2)cn1` [Example 58, 2-(benzyloxy)phenyl (R)-3-(2-amino-5-(1-methyl-1H-pyrazol-4-yl)nicotinamido)pyrrolidine-1-carboxylate], the negative-log IC50 (pIC50) is under 6.00.
Compound `Cn1cc(-c2cnc(N)c(C(=O)N[C@@H]3CCN(C(=O)Oc4cccc(OCc5ccccc5)c4)C3)c2)cn1` [Example 59, 3-(benzyloxy)phenyl (R)-3-(2-amino-5-(1-methyl-1H-pyrazol-4-yl)nicotinamido)pyrrolidine-1-carboxylate] gave a pIC50 of under 6.00.
As to `Cn1cc(-c2cnc(N)c(C(=O)N[C@@H]3CCN(C(=O)Oc4cccc(Cl)c4Cl)C3)c2)cn1` [Example 60, 2,3-dichlorophenyl (R)-3-(2-amino-5-(1-methyl-1H-pyrazol-4-yl)nicotinamido)pyrrolidine-1-carboxylate], the negative logarithm of the IC50 (pIC50) is under 6.00.
Regarding `Cn1cc(-c2cnc(N)c(C(=O)N[C@@H]3CCN(C(=O)Oc4cc(Cl)ccc4Cl)C3)c2)cn1` [Example 61, 2,5-dichlorophenyl (R)-3-(2-amino-5-(1-methyl-1H-pyrazol-4-yl)nicotinamido)pyrrolidine-1-carboxylate], the negative-log IC50 (pIC50) was under 6.00.
`Cn1cc(-c2cnc(N)c(C(=O)N[C@@H]3CCN(C(=O)Oc4ccccc4C#N)C3)c2)cn1` [Example 62, 2-cyanophenyl (R)-3-(2-amino-5-(1-methyl-1H-pyrazol-4-yl)nicotinamido)pyrrolidine-1-carboxylate] gave a negative logarithm of the IC50 (pIC50) of under 6.00.
In turn, `COc1cc(Br)ccc1OC(=O)N1CC[C@@H](NC(=O)c2cc(-c3cnn(C)c3)cnc2N)C1` [Example 63, 4-bromo-2-methoxyphenyl (R)-3-(2-amino-5-(1-methyl-1H-pyrazol-4-yl)nicotinamido)pyrrolidine-1-carboxylate] gave a pIC50 of under 6.00.
With `COC(=O)c1cccc(OC(=O)N2CC[C@@H](NC(=O)c3cc(-c4cnn(C)c4)cnc3N)C2)c1` [Example 64, 3-(methoxycarbonyl)phenyl (R)-3-(2-amino-5-(1-methyl-1H-pyrazol-4-yl)nicotinamido)pyrrolidine-1-carboxylate] the figure was under 6.00; with `COC(=O)c1ccc(OC)cc1OC(=O)N1CC[C@@H](NC(=O)c2cc(-c3cnn(C)c3)cnc2N)C1` [Example 65, 5-methoxy-2-(methoxycarbonyl)phenyl (R)-3-(2-amino-5-(1-methyl-1H-pyrazol-4-yl)nicotinamido)pyrrolidine-1-carboxylate], under 6.00.
Turning to `Cn1cc(-c2cnc(N)c(C(=O)N[C@@H]3CCN(C(=O)OC4CCCCC4)C3)c2)cn1` [Example 66, cyclohexyl (R)-3-(2-amino-5-(1-methyl-1H-pyrazol-4-yl)nicotinamido)pyrrolidine-1-carboxylate], the negative-log IC50 (pIC50) is under 6.00.
With `Cn1cc(-c2cnc(N)c(C(=O)N[C@@H]3CCN(C(=O)Oc4ccc5cc(Br)ccc5c4)C3)c2)cn1` [Example 67, 6-bromonaphthalen-2-yl (R)-3-(2-amino-5-(1-methyl-1H-pyrazol-4-yl)nicotinamido)pyrrolidine-1-carboxylate], the negative logarithm of the IC50 (pIC50) was 6.00 to 7.00.
`Cn1cc(-c2cnc(N)c(C(=O)N[C@@H]3CCN(C(=O)Oc4cccc5ccccc45)C3)c2)cn1` [Example 68, naphthalen-1-yl (R)-3-(2-amino-5-(1-methyl-1H-pyrazol-4-yl)nicotinamido)pyrrolidine-1-carboxylate] had a pIC50 of under 6.00.
For `Cn1cc(-c2cnc(N)c(C(=O)N[C@@H]3CCN(C(=O)Oc4ccc5ccccc5c4N)C3)c2)cn1` [Example 69, 1-aminonaphthalen-2-yl (R)-3-(2-amino-5-(1-methyl-1H-pyrazol-4-yl)nicotinamido)pyrrolidine-1-carboxylate], the negative logarithm of the IC50 (pIC50) was 6.00 to 7.00.
`Cn1cc(-c2cnc(N)c(C(=O)N[C@@H]3CCN(C(=O)Oc4ccccc4CO)C3)c2)cn1` [Example 71, 2-(hydroxymethyl)phenyl (R)-3-(2-amino-5-(1-methyl-1H-pyrazol-4-yl)nicotinamido)pyrrolidine-1-carboxylate] had a negative logarithm of the IC50 (pIC50) of under 6.00.
Compound `Cn1cc(-c2cnc(N)c(C(=O)N[C@@H]3CCN(C(=O)Oc4ccc5ncccc5c4)C3)c2)cn1` [Example 72, quinolin-6-yl (R)-3-(2-amino-5-(1-methyl-1H-pyrazol-4-yl)nicotinamido)pyrrolidine-1-carboxylate] gave a negative-log IC50 (pIC50) of under 6.00.
For the compound `Cn1cc(-c2cnc(N)c(C(=O)N[C@@H]3CCN(C(=O)Oc4cccc5cccnc45)C3)c2)cn1` [Example 73, quinolin-8-yl (R)-3-(2-amino-5-(1-methyl-1H-pyrazol-4-yl)nicotinamido)pyrrolidine-1-carboxylate], the pIC50 is under 6.00.
Take `CCNc1cc(OC(=O)N2CC[C@@H](NC(=O)c3cc(-c4cnn(C)c4)cnc3N)C2)ccc1C` [Example 74, 3-(ethylamino)-4-methylphenyl (R)-3-(2-amino-5-(1-methyl-1H-pyrazol-4-yl)nicotinamido)pyrrolidine-1-carboxylate]: the pIC50 is under 6.00.
